This note sets out measurements from publication PMC7802075 (ACS Infectious Diseases, 2020).

The inhibition is the relative decrease from the control value, in per cent.

The target of the first assay is T1, LmjIPCS (inositol phosphorylceramide synthase from L. major) (Leishmania major, UniProt E9AFX2).
T1 sequence (E9AFX2 1-338): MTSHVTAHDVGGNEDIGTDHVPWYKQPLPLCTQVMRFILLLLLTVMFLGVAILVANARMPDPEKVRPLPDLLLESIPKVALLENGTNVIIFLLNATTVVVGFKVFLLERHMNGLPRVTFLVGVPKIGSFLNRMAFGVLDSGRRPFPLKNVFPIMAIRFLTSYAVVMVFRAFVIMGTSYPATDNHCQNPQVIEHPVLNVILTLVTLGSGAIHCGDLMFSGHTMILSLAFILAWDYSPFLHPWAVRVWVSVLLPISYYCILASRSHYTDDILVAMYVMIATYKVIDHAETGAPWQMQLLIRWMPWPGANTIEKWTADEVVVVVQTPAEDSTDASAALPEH
The assay is described as follows: biochemical. It counts as biochemical.
Conditions: not given
On the set-up: inhibition: dose or concentration left out as unconfirmed.
As to `CC(C)OC(=O)C(C)(C)Oc1ccc(C(=O)c2ccc(Cl)cc2)cc1` [FENOFIBRATE], the “20mM inhibition LmjIPCS” value is given as 58%.

Take `C[C@@H]1C[C@H]2[C@@H]3C[C@H](F)C4=CC(=O)C=C[C@]4(C)[C@@]3(F)[C@@H](O)C[C@]2(C)[C@@]1(O)C(=O)COC(=O)C(C)(C)C` [FLUMETHAZONE PIVALATE]: the “20mM inhibition LmjIPCS” value worked out at 14%.

The same assay, now with this note: NINDS set screen, single concentration printed as 20mM.
Consider `O=C1NCC2(CCN(CCc3ccccc3)CC2)O1` [FENSPIRIDE], for which the “20mM inhibition LmjIPCS” value came to 47%.

The same assay, now with this note: NINDS set screen; read-out: inhibition LmjIPCS.
`O=c1[nH]c(=O)n([C@H]2C[C@H](O)[C@@H](CO)O2)cc1F` [FLOXURIDINE]: the inhibition was -2.28%.

As for `O=C(O)c1ccccc1OP(=O)(O)O` [FOSFOSAL], the inhibition turned out to be 13%.

Still in this assay, the particulars now being: read-out: 20mM inhibition LmjIPCS.
In the case of `CC(C(=O)O)c1cccc(Oc2ccccc2)c1` (stereo not shown) [FENOPROFEN], the inhibition at 20000 µM is 6%.

Take `CC(Cc1ccc(O)cc1)NCC(O)c1cc(O)cc(O)c1` (stereo not shown) [FENOTEROL]: the inhibition at 20000 µM worked out at 15%.

As for `CC(=O)OCC(=O)[C@@]1(O)CC[C@H]2[C@@H]3CCC4=CC(=O)CC[C@]4(C)[C@@]3(F)[C@@H](O)C[C@@]21C` [FLUDROCORTISONE ACETATE], the inhibition at 20000 µM is 4.65%.

On to `O=C(O)c1ccccc1Nc1cccc(C(F)(F)F)c1` [FLUFENAMIC ACID], for which the inhibition at 20000 µM is -16%.

`CC1CCc2cc(F)cc3c(=O)c(C(=O)O)cn1c23` (stereo not shown) [FLUMEQUINE]: the inhibition at 20000 µM is 5%.

Regarding `CC1(C)O[C@@H]2C[C@H]3[C@@H]4C[C@H](F)C5=CC(=O)C=C[C@]5(C)[C@H]4[C@@H](O)C[C@]3(C)[C@]2(C(=O)CO)O1` [FLUNISOLIDE], the inhibition at 20000 µM was -10%.

In the case of `CC(=O)OCC(=O)[C@@]12OC(C)(C)O[C@@H]1C[C@H]1[C@@H]3C[C@H](F)C4=CC(=O)C=C[C@]4(C)[C@@]3(F)[C@@H](O)C[C@@]12C` [FLUOCINONIDE], the inhibition at 20000 µM turned out to be 6%.

On to `CC(=O)[C@@]1(O)CC[C@H]2[C@@H]3C[C@H](C)C4=CC(=O)C=C[C@]4(C)[C@@]3(F)[C@@H](O)C[C@@]21C` [FLUOROMETHOLONE], for which the inhibition at 20000 µM was determined as 3%.

In the case of `CC1(C)O[C@@H]2C[C@H]3[C@@H]4C[C@H](F)C5=CC(=O)CC[C@]5(C)[C@H]4[C@@H](O)C[C@]3(C)[C@]2(C(=O)CO)O1` [FLURANDRENOLIDE], the inhibition at 20000 µM is -15%.

On to `CC(C)C(=O)Nc1ccc([N+](=O)[O-])c(C(F)(F)F)c1` [FLUTAMIDE], for which the inhibition at 20000 µM was -1.8%.

On to `C[C@]12CCC(=O)C(O)=C1CC[C@@H]1[C@@H]2CC[C@]2(C)C(=O)CC[C@@H]12` [FORMESTANE], for which the inhibition at 20000 µM came to 18%.

As for `O=C(O)c1cc2cc(Cc3cccnc3)ccc2o1` [FUREGRELATE], the inhibition at 20000 µM was -16%.

Consider `NS(=O)(=O)c1cc(C(=O)O)c(NCc2ccco2)cc1Cl` [FUROSEMIDE], for which the inhibition at 20000 µM was 5%.

Turning to `Oc1noc2c1CCNC2` [GABOXADOL], the inhibition at 20000 µM was -24%.

As for `COc1ccc2c3c1O[C@H]1C[C@@H](O)C=C[C@@]31CCN(C)C2` [GALANTHAMINE], the inhibition at 20000 µM is 2.62%.

Consider `CC[N+](CC)(CC)CCOc1cccc(OCC[N+](CC)(CC)CC)c1OCC[N+](CC)(CC)CC` [GALLAMINE TRIETHIODIDE], for which the inhibition at 20000 µM was -1.76%.

Staying with this assay, now noted: read-out: inhibition LmjIPCS.
Take `O=c1[nH]cc(F)c(=O)[nH]1` [FLUOROURACIL]: the inhibition turned out to be 4.66%.

As to `CC(C(=O)O)c1ccc(-c2ccccc2)c(F)c1` (stereo not shown) [FLURBIPROFEN], the inhibition amounted to 4%.

In the case of `Nc1nc(=O)c2nc(CNc3ccc(C(=O)N[C@@H](CCC(=O)O)C(=O)O)cc3)cnc2[nH]1` [FOLIC ACID], the inhibition turned out to be 5.56%.

Take `O=C(O)P(=O)(O)O` [FOSCARNET]: the inhibition was determined as 2%.

As for `C[C@@H]1O[C@@H]1P(=O)(O)O` [FOSFOMYCIN], the inhibition came out at 16%.

`CC(=O)O[C@H]1C[C@@]2(C)[C@@H](C[C@@H](O)[C@H]3[C@@]4(C)CC[C@@H](O)[C@@H](C)[C@@H]4CC[C@@]32C)/C1=C(\CCC=C(C)C)C(=O)O` [FUSIDIC ACID]: the inhibition was found to be 5.47%.

Staying with this assay, now noted: screening of NINDS set, sheet Screen 1; read-out: inhibition LmjIPCS.
Take `O=C(COc1ccc(Cl)cc1)N1CCN(Cc2ccc3c(c2)OCO3)CC1` [FIPEXIDE]: the inhibition was 2.64%.
